Data set [1] is described as follows: AUC in rat at 10 mg/kg, po. Type of data set: ADME, organism-based. On the set-up: dose 10 mg/kg, route oral. The settings on record: plasma.
For data set [2], the target named is T1, Protein farnesyltransferase (Homo sapiens, UniProt P49354+P49356). Kind of data set: Inhibition of farnesyltransferase activity in COS7 cells transfected with Ras gene in soft agar proliferation. Format: functional, cell-based, Chlorocebus aethiops, COS-7.
For data set [3], the target named is T1, Protein farnesyltransferase. Nature of the data set: Inhibition of farnesyltransferase activity. Format: protein-complex assay.
For data set [4] the target is unchanged. Nature of the data set: Inhibition of farnesyltransferase activity at 0.2 uM. Type of data set: protein-complex assay.

Four molecules from ChEMBL document CHEMBL1138145, “Enhanced FTase activity achieved via piperazine interaction with catalytic zinc” (Bioorg Med Chem Lett, 2006) can be followed below.

Each structure is given as a SMILES string. pIC50: −log10 of the molar value.

What is called AUC is concentration integrated over time. Low values mean less exposure, high ones more exposure. The pIC50 is −log10 of the IC50, conventionally taken in molar units. With `CS(=O)(=O)N1CCC([C@@H]2c3ccc(Cl)cc3C(N3CCNCC3)=Cc3cccnc32)CC1`, the AUC in data set [1] is 4 µM·h. In addition, the negative logarithm of the IC50 (pIC50) in data set [2] was 7.14; in data set [3], 8.15.
In the case of `CS(=O)(=O)N1CCC([C@H]2c3ccc(Cl)cc3C=C(N3CCNCC3)c3cccnc32)CC1`, the pIC50 in data set [3] is 6.82.
A word on the inhibition: it is the drop in the measured response relative to a control, in per cent. A higher inhibition goes with strong suppression. As for `CS(=O)(=O)N1CCC([C@H]2c3ccc(Cl)cc3C(N3CCNCC3)=Cc3cccnc32)CC1`, the inhibition in data set [4] turned out to be 29%.
As for `CS(=O)(=O)N1CCC([C@@H]2c3ccc(Cl)cc3C=C(N3CCNCC3)c3cccnc32)CC1`, the pIC50 in data set [3] was 7.12.
